Measured values: patent US20260184693A1, “INHIBITORS OF SOLUTE CARRIER FAMILY 6A MEMBER 19 (SLC6A19) AND METHODS OF USE THEREOF” (Maze Therapeutics, Inc., priority 2022, published 2026)

Each compound was assayed against T1, human SLC6A19 (Homo sapiens, UniProt Q695T7) (assay: Example B2: 13C6,15N-isoleucine uptake, RapidFire mass spectrometry, in CHO cells with doxycycline-inducible expression of human SLC6A19 and TMEM27). Settings: read-out: SLC6A19_RapidFire Uptake Assay IC50.
T1 construct: expressed in transfected cells
T1 sequence (Q695T7 1-634): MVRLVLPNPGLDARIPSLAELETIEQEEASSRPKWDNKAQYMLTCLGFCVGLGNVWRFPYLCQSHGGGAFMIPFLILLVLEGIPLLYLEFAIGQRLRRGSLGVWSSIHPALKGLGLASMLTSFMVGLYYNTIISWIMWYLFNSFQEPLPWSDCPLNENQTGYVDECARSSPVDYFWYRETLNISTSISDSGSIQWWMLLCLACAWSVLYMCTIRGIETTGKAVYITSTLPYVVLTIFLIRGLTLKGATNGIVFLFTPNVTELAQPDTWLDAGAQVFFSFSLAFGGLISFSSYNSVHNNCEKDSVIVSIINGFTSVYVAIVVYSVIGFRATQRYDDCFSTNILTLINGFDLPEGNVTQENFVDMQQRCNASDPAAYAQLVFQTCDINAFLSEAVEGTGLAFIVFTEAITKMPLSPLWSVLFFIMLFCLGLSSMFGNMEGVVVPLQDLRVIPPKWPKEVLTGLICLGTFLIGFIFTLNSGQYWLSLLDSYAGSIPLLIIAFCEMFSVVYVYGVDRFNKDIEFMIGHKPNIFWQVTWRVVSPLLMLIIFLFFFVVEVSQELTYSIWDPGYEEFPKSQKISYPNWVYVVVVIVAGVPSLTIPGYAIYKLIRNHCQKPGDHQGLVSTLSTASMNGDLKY
T1 sequence (Q9HBJ8 15-222 partner): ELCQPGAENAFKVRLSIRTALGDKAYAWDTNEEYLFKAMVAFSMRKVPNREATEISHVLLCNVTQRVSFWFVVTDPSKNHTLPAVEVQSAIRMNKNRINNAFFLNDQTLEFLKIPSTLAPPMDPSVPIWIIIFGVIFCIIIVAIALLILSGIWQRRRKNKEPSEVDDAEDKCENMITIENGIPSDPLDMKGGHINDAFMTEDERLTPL
Type: cell-based
Method in brief: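 CHO cells were induced with doxycycline to express human SLC6A19 with TMEM27, then pre-incubated 20 min at 37 °C with compounds (2-fold, 10-point, duplicate). Uptake of 13C6,15N-isoleucine (2 mM solution added) over a further 20 min was measured by RapidFire mass spectrometry, using 13C-leucine as internal standard.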
In the case of `CN(C(=O)NCc1cc2cc(Cl)ccc2[nH]1)[C@@H]1CCCN(C(=O)CN2CCCC2=O)C1` [Compound 94, (R)-3-((5-chloro-1H-indol-2-yl)methyl)-1-methyl-1-(1-(2-(2-oxopyrrolidin-1-yl)acetyl)piperidin-3-yl)urea], the IC50 is reported as 2.75 µM.
`CN(C(=O)NCc1cc2cc(Cl)ccc2[nH]1)[C@@H]1CCCN(C(=O)C2CCOCC2)C1` [Compound 95, (R)-3-((5-chloro-1H-indol-2-yl)methyl)-1-methyl-1-(1-(tetrahydro-2H-pyran-4-carbonyl)piperidin-3-yl)urea] gave an IC50 of 3.24 µM.
`CC(=O)N1CC(C(=O)N2CCC[C@@H](N(C)C(=O)NCc3cc4cc(Cl)ccc4[nH]3)C2)C1` [Compound 96, (R)-1-(1-(1-acetylazetidine-3-carbonyl)piperidin-3-yl)-3-((5-chloro-1H-indol-2-yl)methyl)-1-methylurea] showed an IC50 of 0.933 µM.
`CN(C(=O)NCc1cc2cc(Cl)ccc2[nH]1)[C@@H]1CCCN(C(=O)C2(O)CCCC2)C1` [Compound 97, (R)-3-((5-chloro-1H-indol-2-yl)methyl)-1-(1-(1-hydroxycyclopentane-1-carbonyl)piperidin-3-yl)-1-methylurea] showed an IC50 of 1.34 µM.
For `CN(C(=O)NCc1cc2cc(Cl)ccc2[nH]1)[C@@H]1CCCN(C(=O)CC2(O)CCC2)C1` [Compound 98, (R)-3-((5-chloro-1H-indol-2-yl)methyl)-1-(1-(2-(1-hydroxycyclobutyl)acetyl)piperidin-3-yl)-1-methylurea], the IC50 was 3 µM.
Compound `CN(C(=O)NCc1cc2cc(Cl)ccc2[nH]1)[C@@H]1CCCN(C(=O)C2CC(C)(O)C2)C1` (stereo partly drawn) [Compound 99, (R)-3-((5-chloro-1H-indol-2-yl)methyl)-1-(1-(3-hydroxy-3-methylcyclobutane-1-carbonyl)piperidin-3-yl)-1-methylurea] has an IC50 of 0.745 µM.
In the case of `CN(C(=O)NCc1cc2cc(Cl)ccc2[nH]1)[C@@H]1CCCN(C(=O)c2cccc3c2OCC3)C1` [Compound 100, (R)-3-((5-chloro-1H-indol-2-yl)methyl)-1-(1-(2,3-dihydrobenzofuran-7-carbonyl)piperidin-3-yl)-1-methylurea], the IC50 is reported as 0.38 µM.
For `CN(C)C(=O)NCC(=O)N1CCC[C@@H](N(C)C(=O)NCc2cc3cc(Cl)ccc3[nH]2)C1` [Compound 101, (R)-3-((5-chloro-1H-indol-2-yl)methyl)-1-(1-((dimethylcarbamoyl)glycyl)piperidin-3-yl)-1-methylurea], the IC50 was 2.93 µM.
In the case of `Cc1cnc2ncc(C(=O)N3CCC[C@@H](N(C)C(=O)NCc4cc5cc(Cl)ccc5[nH]4)C3)n2c1` [Compound 102, (R)-3-((5-chloro-1H-indol-2-yl)methyl)-1-methyl-1-(1-(6-methylimidazo[1,2-a]pyrimidine-3-carbonyl)piperidin-3-yl)urea], the IC50 is reported as 1.8 µM.
`CN(C(=O)NCc1cc2cc(Cl)ccc2[nH]1)[C@@H]1CCCN(C(=O)C2CN(S(C)(=O)=O)C2)C1` [Compound 103, (R)-3-((5-chloro-1H-indol-2-yl)methyl)-1-methyl-1-(1-(1-(methylsulfonyl)azetidine-3-carbonyl)piperidin-3-yl)urea] gave an IC50 of 2.24 µM.
`CCC(NC(C)=O)C(=O)N1CCC[C@@H](N(C)C(=O)NCc2cc3cc(Cl)ccc3[nH]2)C1` (stereo partly drawn) [Compound 104, N-(1-((R)-3-(3-((5-chloro-1H-indol-2-yl)methyl)-1-methylureido)piperidin-1-yl)-1-oxobutan-2-yl)acetamide] gave an IC50 of 6.78 µM.
`CC(C(=O)N1CCC[C@@H](N(C)C(=O)NCc2cc3cc(Cl)ccc3[nH]2)C1)C1(O)CCC1` (stereo partly drawn) [Compound 105, 3-((5-chloro-1H-indol-2-yl)methyl)-1-((3R)-1-(2-(1-hydroxycyclobutyl)propanoyl)piperidin-3-yl)-1-methylurea] showed an IC50 greater than 27 µM.
Compound `CN(C(=O)NCc1cc2cc(Cl)ccc2[nH]1)[C@@H]1CCCN(C(=O)CC2CCCCO2)C1` (stereo partly drawn) [Compound 106, 3-((5-chloro-1H-indol-2-yl)methyl)-1-methyl-1-((3R)-1-(2-(tetrahydro-2H-pyran-2-yl)acetyl)piperidin-3-yl)urea] has an IC50 of 1.77 µM.
`COc1ccc(CC(=O)N2CCC[C@@H](N(C)C(=O)NCc3cc4cc(Cl)ccc4[nH]3)C2)cc1F` [Compound 107, (R)-3-((5-chloro-1H-indol-2-yl)methyl)-1-(1-(2-(3-fluoro-4-methoxyphenyl)acetyl)piperidin-3-yl)-1-methylurea] gave an IC50 of 1.25 µM.
`CN(C(=O)NCc1cc2cc(Cl)ccc2[nH]1)[C@@H]1CCCN(C(=O)[C@H]2CC[C@H](O)CC2)C1` [Compound 108] was tested, and the IC50 was 2.28 µM.
Compound `CCNC(=O)NC(C)C(=O)N1CCC[C@@H](N(C)C(=O)NCc2cc3cc(Cl)ccc3[nH]2)C1` (stereo partly drawn) [Compound 109, 3-((5-chloro-1H-indol-2-yl)methyl)-1-((3R)-1-((ethylcarbamoyl)alanyl)piperidin-3-yl)-1-methylurea] has an IC50 of 1.81 µM.
For `CN(C(=O)NCc1cc2cc(Cl)ccc2[nH]1)[C@@H]1CCCN(C(=O)C(O)CO)C1` (stereo partly drawn) [Compound 110, 3-((5-chloro-1H-indol-2-yl)methyl)-1-((3R)-1-(2,3-dihydroxypropanoyl)piperidin-3-yl)-1-methylurea], the IC50 was 8.56 µM.
`CN(C(=O)NCc1cc2cc(Cl)ccc2[nH]1)[C@@H]1CCCN(C(=O)C2(CO)CCC2)C1` [Compound 122, (R)-3-((5-chloro-1H-indol-2-yl)methyl)-1-(1-(1-(hydroxymethyl)cyclobutane-1-carbonyl)piperidin-3-yl)-1-methylurea] showed an IC50 of 8.6 µM.
`CN(C(=O)NCc1cc2cc(Cl)ccc2[nH]1)[C@@H]1CCCN(C(=O)C23CC(C2)C3)C1` [Compound 123, (R)-1-(1-(bicyclo[1.1.1]pentane-1-carbonyl)piperidin-3-yl)-3-((5-chloro-1H-indol-2-yl)methyl)-1-methylurea] showed an IC50 of 0.427 µM.
Compound `CN(C(=O)NCc1cc2cc(Cl)ccc2[nH]1)[C@@H]1CCCN(C(=O)C2CC(F)C2)C1` (stereo partly drawn) [Compound 124, (R)-3-((5-chloro-1H-indol-2-yl)methyl)-1-(1-(3-fluorocyclobutane-1-carbonyl)piperidin-3-yl)-1-methylurea] has an IC50 of 0.256 µM.
Compound `CN(C(=O)NCc1cc2cc(Cl)ccc2[nH]1)[C@@H]1CCCN(C(=O)C2CCC2F)C1` (stereo partly drawn) [Compound 125, 3-((5-chloro-1H-indol-2-yl)methyl)-1-((3R)-1-(2-fluorocyclobutane-1-carbonyl)piperidin-3-yl)-1-methylurea] has an IC50 of 0.259 µM.
`CN(C(=O)NCc1cc2cc(Cl)ccc2[nH]1)[C@@H]1CCCN(C(=O)C2(C)COC2)C1` [Compound 126, (R)-3-((5-chloro-1H-indol-2-yl)methyl)-1-methyl-1-(1-(3-methyloxetane-3-carbonyl)piperidin-3-yl)urea] gave an IC50 of 1.44 µM.
With `CN(C(=O)NCc1cc2cc(Cl)ccc2[nH]1)[C@@H]1CCCN(C(=O)C2(F)CCC2)C1` [Compound 127, (R)-3-((5-chloro-1H-indol-2-yl)methyl)-1-(1-(1-fluorocyclobutane-1-carbonyl)piperidin-3-yl)-1-methylurea] the IC50 was 0.679 µM.
`CN(C(=O)NCc1cc2cc(Cl)ccc2[nH]1)[C@@H]1CCCN(C(=O)C2(O)CCC2)C1` [Compound 128, (R)-3-((5-chloro-1H-indol-2-yl)methyl)-1-(1-(1-hydroxycyclobutane-1-carbonyl)piperidin-3-yl)-1-methylurea] was tested, and the IC50 was 1.82 µM.
`CN1CC(C(=O)N2CCC[C@@H](N(C)C(=O)NCc3cc4cc(Cl)ccc4[nH]3)C2)C1` [Compound 129, (R)-3-((5-chloro-1H-indol-2-yl)methyl)-1-methyl-1-(1-(1-methylazetidine-3-carbonyl)piperidin-3-yl)urea] showed an IC50 greater than 31.8 µM.
For `CN(C(=O)NCc1cc2cc(Cl)ccc2[nH]1)[C@@H]1CCCN(C(=O)C2CNC2)C1` [Compound 130, (R)-1-(1-(azetidine-3-carbonyl)piperidin-3-yl)-3-((5-chloro-1H-indol-2-yl)methyl)-1-methylurea], the IC50 was 12.1 µM.
`CN(C(=O)NCc1cc2cc(Cl)ccc2[nH]1)[C@@H]1CCCN(C(=O)[C@@H]2CC(=O)CN2)C1` [Compound 131, 3-((5-chloro-1H-indol-2-yl)methyl)-1-methyl-1-((R)-1-((S)-4-oxopyrrolidine-2-carbonyl)piperidin-3-yl)urea] was tested, and the IC50 was greater than 45.4 µM.
For `COCC(N)C(=O)N1CCC[C@@H](N(C)C(=O)NCc2cc3cc(Cl)ccc3[nH]2)C1` (stereo partly drawn) [Compound 132, 3-((5-chloro-1H-indol-2-yl)methyl)-1-methyl-1-((3R)-1-(O-methylseryl)piperidin-3-yl)urea], the IC50 was greater than 31 µM.
Compound `CN(C(=O)NCc1cc2cc(Cl)ccc2[nH]1)[C@@H]1CCCN(C(=O)C2COCCN2)C1` (stereo partly drawn) [Compound 133, 3-((5-chloro-1H-indol-2-yl)methyl)-1-methyl-1-((3R)-1-(morpholine-3-carbonyl)piperidin-3-yl)urea] has an IC50 greater than 7.64 µM.
